Assay results published in PubChem BioAssay AID2060505 (Molecular Pharmacology Branch, DTP, NCI, 2025).

Test system: 633275-114-R-J1-PDC complex spheroids, viability
Assay: Anticancer human tumor 633275-114-R-J1-PDC patient-derived endometrial adenocarcinoma cell line growth inhibition [GQUAD]
Settings: for IC50: curve of first compound; for viability, T/C: stronger effect = lower value
Summary of the method: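 Viability of tumor cells grown as complex spheroids with endothelial and stromal cells, exposed to drug combinations. Top concentration at or near clinical Cmax (else 10 microM), diluted in half-log increments.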

[1] = second compound 0.0316 µM, first compound 0.0316 µM
[2] = second compound 0.0316 µM, first compound 0.1 µM
[3] = second compound 0.0316 µM, first compound 0.316 µM
[4] = second compound 0.0316 µM, first compound 1 µM
[5] = second compound 0.0316 µM, first compound 3.16 µM
[6] = second compound 0.0316 µM, first compound 10 µM
[7] = second compound 0.1 µM, first compound 0.0316 µM
[8] = second compound 0.1 µM, first compound 0.1 µM
[9] = second compound 0.1 µM, first compound 0.316 µM
[10] = second compound 0.1 µM, first compound 1 µM
[11] = second compound 0.1 µM, first compound 3.16 µM
[12] = second compound 0.1 µM, first compound 10 µM
[13] = second compound 0.316 µM, first compound 0.0316 µM
[14] = second compound 0.316 µM, first compound 0.1 µM
[15] = second compound 0.316 µM, first compound 0.316 µM
[16] = second compound 0.316 µM, first compound 1 µM
[17] = second compound 0.316 µM, first compound 3.16 µM
[18] = second compound 0.316 µM, first compound 10 µM
[19] = second compound 1 µM, first compound 0.0316 µM
[20] = second compound 1 µM, first compound 0.1 µM
[21] = second compound 1 µM, first compound 0.316 µM
[22] = second compound 1 µM, first compound 1 µM
[23] = second compound 1 µM, first compound 3.16 µM
[24] = second compound 1 µM, first compound 10 µM
[25] = second compound 3.16 µM, first compound 0.0316 µM
[26] = second compound 3.16 µM, first compound 0.1 µM
[27] = second compound 3.16 µM, first compound 0.316 µM
[28] = second compound 3.16 µM, first compound 1 µM
[29] = second compound 3.16 µM, first compound 3.16 µM
[30] = second compound 3.16 µM, first compound 10 µM
[31] = second compound 10 µM, first compound 0.0316 µM
[32] = second compound 10 µM, first compound 0.1 µM
[33] = second compound 10 µM, first compound 0.316 µM
[34] = second compound 10 µM, first compound 1 µM
[35] = second compound 10 µM, first compound 3.16 µM
[36] = second compound 10 µM, first compound 10 µM
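Note: spheroids exposed to the agents for seven days.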
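Throughout, for viability, T/C: percent of DMSO vehicle control viability which is 100%.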

## O=c1[nH]cc(F)c(=O)[nH]1 + CN(C)c1ccc(Nc2c3ccc(NC(=O)CCN4CCCC4)cc3nc3cc(NC(=O)CCN4CCCC4)ccc23)cc1
Second compound 0.0316 µM
  IC50: > 10 µM
Second compound 0.1 µM
  IC50: > 10 µM
Second compound 0.316 µM
  IC50: > 10 µM
Second compound 1 µM
  IC50: > 10 µM
Second compound 3.16 µM
  IC50: > 10 µM
Second compound 10 µM
  IC50: < 0.0316 µM
[1]
  viability, T/C: 112%
[2]
  viability, T/C: 96%
[3]
  viability, T/C: 96.9%
[4]
  viability, T/C: 88.1%
[5]
  viability, T/C: 88.5%
[6]
  viability, T/C: 66%
[7]
  viability, T/C: 97.6%
[8]
  viability, T/C: 98.8%
[9]
  viability, T/C: 91.4%
[10]
  viability, T/C: 96.6%
[11]
  viability, T/C: 88.4%
[12]
  viability, T/C: 76.5%
[13]
  viability, T/C: 86.9%
[14]
  viability, T/C: 90.1%
[15]
  viability, T/C: 97.3%
[16]
  viability, T/C: 100%
[17]
  viability, T/C: 86.2%
[18]
  viability, T/C: 66.2%
[19]
  viability, T/C: 79.8%
[20]
  viability, T/C: 91.8%
[21]
  viability, T/C: 98.9%
[22]
  viability, T/C: 99%
[23]
  viability, T/C: 84.9%
[24]
  viability, T/C: 64.3%
[25]
  viability, T/C: 83.2%
[26]
  viability, T/C: 85.9%
[27]
  viability, T/C: 85.2%
[28]
  viability, T/C: 74%
[29]
  viability, T/C: 77.9%
[30]
  viability, T/C: 56.8%
[31]
  viability, T/C: 36%
[32]
  viability, T/C: 38.3%
[33]
  viability, T/C: 30.2%
[34]
  viability, T/C: 33.1%
[35]
  viability, T/C: 32.2%
[36]
  viability, T/C: 26.4%

## C#Cc1c(F)ccc2cc(O)cc(-c3ncc4c(N5CC6CCC(C5)N6)nc(OCC56CCCN5CC(F)C6)nc4c3F)c12 (stereo not given) + CN(C)c1ccc(Nc2c3ccc(NC(=O)CCN4CCCC4)cc3nc3cc(NC(=O)CCN4CCCC4)ccc23)cc1
Second compound 0.0316 µM
  IC50: > 10 µM
Second compound 0.1 µM
  IC50: > 10 µM
Second compound 0.316 µM
  IC50: > 10 µM
Second compound 1 µM
  IC50: > 10 µM
Second compound 3.16 µM
  IC50: 4.36 µM
Second compound 10 µM
  IC50: < 0.0316 µM
[1]
  viability, T/C: 108%
[2]
  viability, T/C: 90.5%
[3]
  viability, T/C: 86.9%
[4]
  viability, T/C: 91.9%
[5]
  viability, T/C: 78%
[6]
  viability, T/C: 66%
[7]
  viability, T/C: 101%
[8]
  viability, T/C: 97.8%
[9]
  viability, T/C: 91.5%
[10]
  viability, T/C: 96.7%
[11]
  viability, T/C: 81.5%
[12]
  viability, T/C: 65.3%
[13]
  viability, T/C: 94.6%
[14]
  viability, T/C: 101%
[15]
  viability, T/C: 86.8%
[16]
  viability, T/C: 82.3%
[17]
  viability, T/C: 71.9%
[18]
  viability, T/C: 68.1%
[19]
  viability, T/C: 97.5%
[20]
  viability, T/C: 96.5%
[21]
  viability, T/C: 87.2%
[22]
  viability, T/C: 85.9%
[23]
  viability, T/C: 70.6%
[24]
  viability, T/C: 54.9%
[25]
  viability, T/C: 81.9%
[26]
  viability, T/C: 86.3%
[27]
  viability, T/C: 81.6%
[28]
  viability, T/C: 66.3%
[29]
  viability, T/C: 62%
[30]
  viability, T/C: 28.1%
[31]
  viability, T/C: 32.5%
[32]
  viability, T/C: 29.2%
[33]
  viability, T/C: 23.3%
[34]
  viability, T/C: 23.6%
[35]
  viability, T/C: 16.1%
[36]
  viability, T/C: 5.22%

## O=c1[nH]cc(F)c(=O)[nH]1 + Cc1[nH]c2ccc(F)cc2c1-c1nc2c3cccnc3c3ncccc3c2[nH]1
Second compound 0.0316 µM
  IC50: > 10 µM
Second compound 0.1 µM
  IC50: > 10 µM
Second compound 0.316 µM
  IC50: > 10 µM
Second compound 1 µM
  IC50: > 10 µM
Second compound 3.16 µM
  IC50: > 10 µM
Second compound 10 µM
  IC50: > 10 µM
[1]
  viability, T/C: 97.7%
[2]
  viability, T/C: 107%
[3]
  viability, T/C: 107%
[4]
  viability, T/C: 95.4%
[5]
  viability, T/C: 86%
[6]
  viability, T/C: 71.8%
[7]
  viability, T/C: 108%
[8]
  viability, T/C: 89.7%
[9]
  viability, T/C: 96.4%
[10]
  viability, T/C: 98.8%
[11]
  viability, T/C: 91.4%
[12]
  viability, T/C: 70.6%
[13]
  viability, T/C: 95.2%
[14]
  viability, T/C: 95.6%
[15]
  viability, T/C: 94%
[16]
  viability, T/C: 90.6%
[17]
  viability, T/C: 93.4%
[18]
  viability, T/C: 71.4%
[19]
  viability, T/C: 91.3%
[20]
  viability, T/C: 101%
[21]
  viability, T/C: 90.6%
[22]
  viability, T/C: 88.4%
[23]
  viability, T/C: 84.5%
[24]
  viability, T/C: 73.3%
[25]
  viability, T/C: 77.1%
[26]
  viability, T/C: 71.7%
[27]
  viability, T/C: 75.5%
[28]
  viability, T/C: 73.2%
[29]
  viability, T/C: 71.2%
[30]
  viability, T/C: 56.9%
[31]
  viability, T/C: 70.5%
[32]
  viability, T/C: 73%
[33]
  viability, T/C: 71.9%
[34]
  viability, T/C: 73%
[35]
  viability, T/C: 71.8%
[36]
  viability, T/C: 55.9%

## COc1ncnc(C2CC2)c1-c1ncc2cnn(Cc3ccc(-c4nc(C(F)(F)F)cn4C(C)C)cc3)c2n1 + CN(C)c1ccc(Nc2c3ccc(NC(=O)CCN4CCCC4)cc3nc3cc(NC(=O)CCN4CCCC4)ccc23)cc1
Second compound 0.0316 µM
  IC50: > 10 µM
Second compound 0.1 µM
  IC50: > 10 µM
Second compound 0.316 µM
  IC50: > 10 µM
Second compound 1 µM
  IC50: > 10 µM
Second compound 3.16 µM
  IC50: > 10 µM
Second compound 10 µM
  IC50: < 0.0316 µM
[1]
  viability, T/C: 102%
[2]
  viability, T/C: 102%
[3]
  viability, T/C: 84.5%
[4]
  viability, T/C: 101%
[5]
  viability, T/C: 102%
[6]
  viability, T/C: 95.4%
[7]
  viability, T/C: 101%
[8]
  viability, T/C: 90.8%
[9]
  viability, T/C: 88.4%
[10]
  viability, T/C: 99%
[11]
  viability, T/C: 93.3%
[12]
  viability, T/C: 87.3%
[13]
  viability, T/C: 86.8%
[14]
  viability, T/C: 103%
[15]
  viability, T/C: 86.8%
[16]
  viability, T/C: 94.5%
[17]
  viability, T/C: 97.2%
[18]
  viability, T/C: 94%
[19]
  viability, T/C: 89.3%
[20]
  viability, T/C: 97.9%
[21]
  viability, T/C: 92.6%
[22]
  viability, T/C: 69.2%
[23]
  viability, T/C: 96.6%
[24]
  viability, T/C: 92.3%
[25]
  viability, T/C: 79.8%
[26]
  viability, T/C: 81.7%
[27]
  viability, T/C: 81.2%
[28]
  viability, T/C: 76.1%
[29]
  viability, T/C: 84.4%
[30]
  viability, T/C: 67.8%
[31]
  viability, T/C: 32.7%
[32]
  viability, T/C: 30.2%
[33]
  viability, T/C: 31.1%
[34]
  viability, T/C: 27.2%
[35]
  viability, T/C: 26.6%
[36]
  viability, T/C: 12.8%

## O=c1[nH]cc(F)c(=O)[nH]1 + Cc1cnc(CNC(=O)c2c(=O)c3ccc(N4CCCN(C)CC4)nc3n3c2sc2ccccc23)cn1
Second compound 0.0316 µM
  IC50: > 10 µM
Second compound 0.1 µM
  IC50: 1.12 µM
Second compound 0.316 µM
  IC50: < 0.0316 µM
Second compound 1 µM
  IC50: < 0.0316 µM
Second compound 3.16 µM
  IC50: < 0.0316 µM
Second compound 10 µM
  IC50: < 0.0316 µM
[1]
  viability, T/C: 67%
[2]
  viability, T/C: 66.8%
[3]
  viability, T/C: 62.7%
[4]
  viability, T/C: 64.5%
[5]
  viability, T/C: 58.8%
[6]
  viability, T/C: 50.6%
[7]
  viability, T/C: 60.6%
[8]
  viability, T/C: 49.7%
[9]
  viability, T/C: 55.8%
[10]
  viability, T/C: 48.5%
[11]
  viability, T/C: 51%
[12]
  viability, T/C: 43.7%
[13]
  viability, T/C: 45.1%
[14]
  viability, T/C: 49.6%
[15]
  viability, T/C: 45.6%
[16]
  viability, T/C: 46.8%
[17]
  viability, T/C: 46.1%
[18]
  viability, T/C: 34.4%
[19]
  viability, T/C: 40.9%
[20]
  viability, T/C: 45.9%
[21]
  viability, T/C: 39.4%
[22]
  viability, T/C: 39.2%
[23]
  viability, T/C: 41.2%
[24]
  viability, T/C: 31.5%
[25]
  viability, T/C: 40.7%
[26]
  viability, T/C: 38%
[27]
  viability, T/C: 37%
[28]
  viability, T/C: 32.6%
[29]
  viability, T/C: 36.7%
[30]
  viability, T/C: 34.9%
[31]
  viability, T/C: 35.8%
[32]
  viability, T/C: 33.6%
[33]
  viability, T/C: 30.6%
[34]
  viability, T/C: 38.4%
[35]
  viability, T/C: 30.9%
[36]
  viability, T/C: 25%
